The results in this text go back to ChEMBL document CHEMBL3045231, “Synthesis and insecticidal activity of new pyrethroids” (2009).

Assay type in all cases: functional
Test [1] deals with Tuta absoluta. Briefly: Insecticidal activity against second-instar larval stage of Tuta absoluta assessed as mortality at 5 ug/mg applied topically on thoracic tergite after 24 hr (reference value: 1.7%).
For test [2], the system named is Musca domestica. Briefly: Insecticidal activity against second-instar larval stage of Musca domestica (house fly) assessed as mortality at 5 ug/mg applied topically on thoracic tergite after 12 hr relative to control.
Test [3] has as its system Tuta absoluta. Briefly: Insecticidal activity against second-instar larval stage of Tuta absoluta assessed as mortality at 5 ug/mg applied topically on thoracic tergite after 12 hr (reference value: 1.7%).
In test [4] the test system is Periplaneta americana. Briefly: Insecticidal activity against second-instar nymph stage of Periplaneta americana (American cockroach) assessed as mortality at 5 ug/mg applied topically on thoracic tergite after 12 hr (reference value: 1.7%).
Test [5] has as its system Ascia monuste. Briefly: Insecticidal activity against second-instar larval stage of Ascia monuste orseis assessed as mortality at 5 ug/mg applied topically on thoracic tergite after 24 hr (reference value: 1.7%).
Test [6] has as its system Periplaneta americana. Briefly: Insecticidal activity against second-instar nymph stage of Periplaneta americana (American cockroach) assessed as mortality at 5 ug/mg applied topically on thoracic tergite after 24 hr (reference value: 1.7%).
In test [7] the test system is Sitophilus zeamais. Briefly: Insecticidal activity against […] Sitophilus zeamais assessed as mortality at 5 ug/mg applied topically on thoracic tergite after 12 hr relative to control.
Test [8] concerns Ascia monuste. Briefly: Insecticidal activity against second-instar larval stage of Ascia monuste orseis assessed as mortality at 5 ug/mg applied topically on thoracic tergite after 12 hr relative to control.
Test [9] deals with Sitophilus zeamais. Briefly: Insecticidal activity against […] Sitophilus zeamais assessed as mortality at 5 ug/mg applied topically on thoracic tergite after 24 hr relative to control.
The test system of test [10] is Musca domestica. Briefly: Insecticidal activity against second-instar larval stage of Musca domestica (house fly) assessed as mortality at 5 ug/mg applied topically on thoracic tergite after 24 hr relative to control.

Regarding `COC(=O)[C@H]1[C@H](/C=C/c2ccc([N+](=O)[O-])cc2)C1(C)C`, the mortality in test [1] turned out to be 55%; in test [2], 17.5%; in test [3] it was 35%; in test [4] it was 10%; in [5], 36.4%; in [6], 20%. In addition, the mortality in [7] is 0%; in test [8], 2.5%; in test [9] it was 0%; in [10] it was 25%.
On to `COC(=O)[C@H]1[C@H](/C=C\c2ccc([N+](=O)[O-])cc2)C1(C)C`, for which the mortality is listed as 67.5% in test [1]; 20% in test [2]; 42.5% in [3]; 10.9% in [4]; 45% in [5]; 24.3% in test [6]. Besides, the mortality is reported as 0% in test [7], 20% in [8], 0% in [9] and 27.5% in test [10].
Turning to `CC1(C)C(C=C(Cl)Cl)C1C(=O)OCc1cccc(Oc2ccccc2)c1` (stereo not given) [PERMETHRIN], the mortality in [1] is on record as 97.5%; in test [2], 72.5%; in test [3], 93.2%; in test [4], 87.5%; in test [5] it was 100%; in test [6] it was 97.5%. The mortality was determined as 17.5% in [7], 100% in test [8], 17.5% in [9] and 72.5% in [10].
In the case of `COC(=O)[C@H]1[C@H](/C=C/c2ccc(F)cc2)C1(C)C`, the mortality in test [1] was 77.5%; in test [2] it was 10%; in test [3], 60%; in test [4], 62.5%; in [5], 90%; in test [6] it was 67.5%. Further, the mortality in [7] worked out at 5%; in [8], 65%; in [9], 7.5%; in test [10], 15%.
Take `COC(=O)[C@H]1[C@H](/C=C/c2ccccc2)C1(C)C`: the mortality was found to be 21.9% in test [1]; 7.5% in test [2]; 12.5% in [3]; 15.6% in test [4]; 50% in test [5]; 37.4% in test [6]. For the same compound, the mortality in [7] came to 10%; in test [8] it was 7.5%; in [9], 12.5%; in [10] it was 12.5%.
Consider `COC(=O)[C@H]1[C@H](/C=C/c2ccc(Cl)cc2)C1(C)C`, for which the mortality in [1] is 72.5%; in test [2], 17.5%; in test [3], 67.5%; in [4], 87.5%; in test [5] it was 82.5%; in test [6], 95%. For the same compound, the mortality in test [7] came out at 0%; in test [8], 80%; in [9] it was 0%; in test [10] it was 22.5%.
On to `COC(=O)[C@H]1[C@H](/C=C\c2ccc(Br)cc2)C1(C)C`, for which the mortality in test [1] was determined as 18.1%; in test [2], 15%; in test [3], 15.6%; in [4], 70%; in [5] it was 85%; in test [6], 72.5%. Further, the mortality in test [7] worked out at 0%; in test [8], 15%; in [9], 0%; in test [10], 25%.
Turning to `COC(=O)[C@H]1[C@H](/C=C\c2ccc(Cl)cc2)C1(C)C`, the mortality in [1] stood at 100%; in test [2], 20%; in test [3], 100%; in test [4], 92.5%; in test [5], 90%; in test [6] it was 100%. The mortality came out at 0% in test [7], 85% in [8], 0% in test [9] and 25% in test [10].
For `COC(=O)[C@H]1[C@H](/C=C\c2ccccc2)C1(C)C`, the mortality in [1] is recorded as 21.9%; in test [2], 7.5%; in [3] it was 12.5%; in [4] it was 15.6%; in test [5], 50%; in test [6], 37.4%. Moreover, the mortality in test [7] was found to be 10%; in [8], 7.5%; in [9], 12.5%; in [10], 12.5%.
For `COC(=O)[C@H]1[C@H](/C=C\c2ccc(F)cc2)C1(C)C`, the mortality in test [1] worked out at 90%; in test [2], 12.5%; in test [3] it was 87.5%; in test [4], 65%; in [5], 92.5%; in [6], 67.5%. The mortality in [7] worked out at 7.5%; in test [8], 67.5%; in test [9], 10%; in [10] it was 15%.
Consider `COC(=O)[C@H]1[C@H](/C=C/c2ccc(Br)cc2)C1(C)C`, for which the mortality in [1] amounted to 25%; in test [2], 12.5%; in test [3], 15%; in test [4], 55%; in [5], 85%; in [6], 65%. The mortality came out at 0% in [7], 5% in test [8], 0% in [9] and 22.5% in [10].

For orientation: mortality means the share of the test organisms that died.
